Source: patent publication US6326471A, “Immunogenic peptides of prostate specific antigen” (priority 1998, dated 2001)

Columns and labels:
[1] = test system: antibody to the alpha subunit of the acetylcholine receptor; conditions: without added hydrophobic LI or AI residues; cited from earlier work
anti-whole PSA antibody = test: ELISA activity of PSA peptide segments with anti-whole PSA antibody; type: binding; conditions: average of "wet" and "dry" ELISA methods; rank 1 = most reactive of 14 peptides
From the text: The amino acid sequence of PSA was divided into fourteen peptide segments. Thirteen of the peptides were 19-mers to 21-mers and one peptide was a 16-mer. […] Two of the peptides lacked both the proline and the hydrophobic-hydrophilic-hydrophobic region descriptors. The combined presence of the two descriptors correlated extremely well with the immunodominance of PSA peptide segments. The six highest scoring PSA peptides in terms of ELISA activity with anti-whole PSA antibody had both characteristics as did the eighth best. Also, the presence of a central proline in a segment lacking the adjacent hydrophobic, hydrophilic, and hydrophobic region characteristic successfully predicted four of five subdominant (moderately ELISA reactive) epitopes, while the absence of both the proline and the hydrophobic-hydrophilic-hydrophobic region characteristics in a peptide segment correctly predicted the two least ELISA reactive peptide segments.

Substance	antibody binding of the peptide alone [1]	ELISA activity rank (anti-whole PSA antibody)
NPDVK	could not bind antibody alone	–
YSTCSGDSGGPLVCNGVLQG [PSA peptide 186-204]	–	11
